Measurements as given in patent US10315990B2, “Isothiocyanate compounds and isothiocyanate XPO1 protein inhibitor drugs thereof” (DRIVINGFORCE THERAPEUTICS Co., Ltd., priority 2015, dated 2019).

What was measured:
XPO1 protein = biological target: T1, XPO1 protein (Homo sapiens, UniProt O14980); assay: Inhibitory activity for XPO1 protein (NES-GFP nuclear export, laser confocal microscope); type: cell-based; settings: NES-GFP nuclear export, cells treated for 2 hours
T1 construct: Sixteen hours later, NES-GFP plasmid was transfected with liposome; endogenous in cells
Source text: NES (nuclear export signal) is a nuclear export signal peptide recognized by XPO1 protein. XPO1 recognizes NES sequence peptide segment of biomacromolecule and exports the biomacromolecule out of nucleus. NES-GFP protein is obtained by co-expressing green fluorescence protein GFP and NES sequence peptide segment by using a eukaryotic expression plasmid. Inhibitory activity of the representative compound for XPO1 protein can be assessed by detecting influence of the compound on NES-GFP cell localization.
The cells were digested with trypsin, counted, and inoculated on 96-well plate in an amount of 1.5×10^4 cells per well. Sixteen hours later, NES-GFP plasmid was transfected with liposome.

HMLE-Snail cell line = assay: Formation of HMLE-Snail cell line spheroids; type: cell-based; settings: 10 μg/ml, treated for 24 hours; control = 100; read-out: Colony (%): cell colony number of drug-treated group/cell colony number of control group × 100%
Experimental: HMLE-Snail cell line is one of most classic cell models for studying tumor cell metastasis and EMT path. HMLE-Snail cell line highly expresses Snail protein, and thus one of most remarkable features thereof is that it has spherical cellular morphology (spheroid). […] The HMLE-Snail cell line used in the present invention was donated by Dr. Robert Weinberg from America Massachusetts Whitehead Institute. HMLE-Snail cells were suspended in a liquid culture medium (in which B-27 and N-2 were added, purchased from America Invitrogen Corporation) containing DMEM/F12 in a ratio of 1:1, in an amount of 1.0×10^3 cells/ml, and cultured in an ultra low attachment culture plate so as to allow spheroids to be formed. Seven days later, spheroids were collected by centrifugation, and counted. […] Docetaxel is a common clinical chemotherapy drug.

[1] = system: SK-OV3 (high metastasis type ovarian cancer cell line); assay: Ovarian cancer intraperitoneal metastasis animal model; type: in vivo, nudemice (BALB/c-nu/nu); settings: Mus musculus, SK-OV-3, ip; for response vs control in vivo at 80 mg/kg: 80 mg/kg intraperitoneal injection once a day for 3 weeks; for mortality at 80 mg/kg: six mice per group, read-out: Mortality (within 30 days) (converted)
Experimental: The ovarian cancer intraperitoneal metastasis animal model is one of most classic animal models for studying anti-ovarian cancer metastasis drug. Sixty 5 to 6-week-old female nudemice with similar weight (BALB/c-nu/nu) were chosen. SK-OV3 (high metastasis type ovarian cancer cell line) stably expressing green fluorescence protein was screened, and prepared into a cell suspension of 2×10^6 cells/100 μl with serum-free PRMI1640 medium. […] Three weeks later, the cancer was detected with a small animal in vivo imaging apparatus (Xenogen, School of Medicine, Shanghai Jiaotong University) and photos thereof were taken. […] In the table, T represents the drug-treated group, and C represents the blank control group. T/C is (V/V0 of compound-treated group)/(V/V0 of blank control group) in which V represents the cancer volume of mouse on the day the detection was performed, and V0 represents the cancer volume of mouse on the day the administration begun.

IL-6 = assay: Serum IL-6 level of IBD animal model (ELISA); type: in vivo, SD rats; settings: 80 mg/kg, three days after making the TNBS model
Source text: (§1) Inflammatory bowel disease is an autoimmune disease. […] The therapeutic effect of the representative compound for the immune system disease or inflammation can be assessed by detecting change in levels of some important cytokines such as TNF-α and IL-6 at downstream of the signal path.

NCI-H1975 = assay: cells; type: cell-based; settings: Homo sapiens; NCI-H1975, 72 hours; read-out: IC50
Experimental: (§2) NCI-H1975 and NCI-H1650 are two typical high metastasis type lung cancer cell lines. The therapeutic effect of the representative compound for the metastasis type lung cancers can be preliminarily assessed by detecting the inhibitory activity of the representative compound for the two cell lines. The lung cancer cell line was inoculated on 96-well cell culture plate in an amount of 6000 cells per well and cultured at 37° C. for 24 hours, and then treated solely with the compound added therein and cultured. Seventy-two hours later, MTT or CCK-8 method was used to detect the inhibitory activity of the compound for the two lung cancer cell lines.

NCI-H1650 = assay: cells; type: cell-based; settings: Homo sapiens; NCI-H1650, 72 hours; read-out: IC50
Experimental: as §2

TNF-α = assay: Serum TNF-α level of IBD animal model (ELISA); type: in vivo, SD rats; settings: 80 mg/kg, three days after making the TNBS model
Source text: as §1

IBD animal model = assay: Macroscopic pathological changes of IBD animal model (enteroclysis with TNBS); type: in vivo, SD rats; settings: TNBS rats; for Macroscopic pathological score: 80 mg/kg intragastrically daily, score 0-5, 10 animals
Experimental: Eight-week-old male SD rats (10 rats per group) were fasted for 24 hours and anaesthetized with diethyl ether. 50% ethanol and TNBS (2,4,6-trinitrobenzenesulfonic acid) were mixed to prepare a solution. In the IBD model group, a tube made of vinyl resin was inserted 5 cm from anus, and enteroclysis was performed with the TNBS solution in a dose of 100 mg/kg. The rats were hung upside down 30 seconds later after the enteroclysis to ensure no leakage of the TNBS solution. In the control group, the TNBS solution was replaced with normal saline with which enteroclysis was performed. Seven days later after the enteroclysis with the TNBS solution or normal saline, animals were sacrificed and dissected. […] Two weeks later after treated with the drugs, the animals were sacrificed and dissected, and large intestine thereof was taken out and fixed in 4% formalin solution for 30 minutes. The large intestine of the animals was cut lengthwise from the mesentery side to take photos for rectum portion and measure the weight of rectum. Based on the macroscopic observation and judgment score (Table 2-1), ulceration and bleeding states of rectum portion were scored according to the macroscopic observation scoring standard.

HCT116 = assay: Inhibitory activity for high metastasis type colon cancer cell line (MTT or CCK-8); type: cell-based; settings: Homo sapiens, HCT-116; HCT116, 72 hours; read-out: IC50
Experimental: (§3) SW620 and HCT116 are two typical high metastasis type colon cancer cell lines. The colon cancer cell line was inoculated on 96-well cell culture plate in an amount of 6000 cells per well and cultured at 37° C. for 24 hours, and then treated solely with the compound added therein and cultured. Seventy-two hours later, MTT or CCK-8 method was used to detect the inhibitory activity of the compound for the two high metastasis type colon cancer cell lines.

SW620 = assay: as above; type: cell-based; settings: Homo sapiens, SW-620; SW620, 72 hours; read-out: IC50
Experimental: as §3

T1 sequence (O14980 whole entry, species assumed): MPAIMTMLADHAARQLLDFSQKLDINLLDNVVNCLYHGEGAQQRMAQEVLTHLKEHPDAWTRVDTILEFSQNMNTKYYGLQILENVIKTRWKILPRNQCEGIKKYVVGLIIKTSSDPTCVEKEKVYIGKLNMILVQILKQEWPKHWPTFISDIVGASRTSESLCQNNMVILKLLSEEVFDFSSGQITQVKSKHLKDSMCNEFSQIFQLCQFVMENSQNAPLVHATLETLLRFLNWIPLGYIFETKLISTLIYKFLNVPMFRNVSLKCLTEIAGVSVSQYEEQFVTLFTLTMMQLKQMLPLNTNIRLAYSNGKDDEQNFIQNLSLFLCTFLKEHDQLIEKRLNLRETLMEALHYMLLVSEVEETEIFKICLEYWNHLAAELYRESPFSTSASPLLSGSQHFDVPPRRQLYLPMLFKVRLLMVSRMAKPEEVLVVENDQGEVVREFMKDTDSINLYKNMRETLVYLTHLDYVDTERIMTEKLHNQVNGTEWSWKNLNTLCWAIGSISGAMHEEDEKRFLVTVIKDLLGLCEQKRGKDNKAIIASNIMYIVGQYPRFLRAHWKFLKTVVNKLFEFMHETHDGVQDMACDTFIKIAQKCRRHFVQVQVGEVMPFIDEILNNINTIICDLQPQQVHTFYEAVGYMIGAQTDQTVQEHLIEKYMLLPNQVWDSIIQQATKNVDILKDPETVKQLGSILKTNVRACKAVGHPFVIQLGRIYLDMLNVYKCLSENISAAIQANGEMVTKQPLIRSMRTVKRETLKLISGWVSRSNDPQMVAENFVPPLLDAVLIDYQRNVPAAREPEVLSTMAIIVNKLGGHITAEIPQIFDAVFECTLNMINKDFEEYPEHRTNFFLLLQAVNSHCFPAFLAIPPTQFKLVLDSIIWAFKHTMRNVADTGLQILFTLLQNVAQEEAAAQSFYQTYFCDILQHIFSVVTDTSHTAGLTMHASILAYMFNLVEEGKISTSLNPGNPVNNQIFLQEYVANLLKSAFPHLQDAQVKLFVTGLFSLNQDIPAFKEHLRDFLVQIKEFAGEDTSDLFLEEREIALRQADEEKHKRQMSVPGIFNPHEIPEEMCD

Row | Compound | Activity (μM): inhibitory activity for XPO1 protein (full inhibitory concentration) (XPO1 protein) [µM] | activity at 10 µg/mL (HMLE-Snail cell line) [%] | also measured
1 | [O-][S+](/C=C/CCN=C=S)c1ccc2c(c1)Cc1ccccc1-2 (stereo not drawn) [Compound I-14] | 1 to 5 | 25 to 30 | 
2 | [O-][S+](/C=C/CCN=C=S)c1ccc2ncccc2c1 (stereo not drawn) [Compound I-17] | 0.5 to 1 | 30 to 35 | response vs control in vivo at 80 mg/kg ([1]; 504 h, read-out: T/C (%)): 27%; mortality at 80 mg/kg ([1]; 720 h): 0%
3 | N#Cc1cc([S+]([O-])/C=C/CCN=C=S)cc(C(F)(F)F)c1 (stereo not drawn) [Compound I-08] | 0.5 to 1 | 15 to 20 | Serum IL-6 level, Animal-1 (IL-6): 0.8 ng/mL; Serum IL-6 level, Animal-2 (IL-6): 0.7 ng/mL; Serum IL-6 level, Animal-3 (IL-6): 0.8 ng/mL; IC50 (NCI-H1975): 0.17 µM; IC50 (NCI-H1650): 0.2 µM; Serum TNF-α level, Animal-1 (TNF-α): 1.0 ng/mL; Serum TNF-α level, Animal-2 (TNF-α): 1.2 ng/mL; Serum TNF-α level, Animal-3 (TNF-α): 1.1 ng/mL; response vs control in vivo at 80 mg/kg ([1]; 504 h, read-out: T/C (%)): 23%; mortality at 80 mg/kg ([1]; 720 h): 0%
4 | COc1ccc2nc([S+]([O-])/C=C/CCN=C=S)[nH]c2c1 (stereo not drawn) [Compound I-24] | 1 to 5 | 20 to 25 | 
5 | [O-][S+](/C=C/CCN=C=S)c1nc2ccccc2s1 (stereo not drawn) [Compound I-20] | 1 to 5 | 30 to 35 | Serum IL-6 level, Animal-1 (IL-6): 1.0 ng/mL; Serum IL-6 level, Animal-2 (IL-6): 1.1 ng/mL; Serum IL-6 level, Animal-3 (IL-6): 1.0 ng/mL; Serum TNF-α level, Animal-1 (TNF-α): 1.3 ng/mL; Serum TNF-α level, Animal-2 (TNF-α): 1.2 ng/mL; Serum TNF-α level, Animal-3 (TNF-α): 1.1 ng/mL; Macroscopic pathological score (IBD animal model): 2.0 ± 0.3
6 | COc1ccc(Sc2ccc([S+]([O-])/C=C/CCN=C=S)cc2)cc1 (stereo not drawn) [Compound I-28] | 0.5 to 1 | 15 to 20 | IC50 (HCT116): 0.15 µM; IC50 (SW620): 0.19 µM
7 | [O-][S+](/C=C/CCN=C=S)c1cncc(C(F)(F)F)c1 (stereo not drawn) [Compound I-16] | 0.5 to 1 | 35 to 40 | 
8 | O=c1ccc2cc([S+]([O-])/C=C/CCN=C=S)ccc2o1 (stereo not drawn) [Compound I-19] | 1 to 5 | 25 to 30 | 
9 | [O-][S+](/C=C/CCN=C=S)c1ccc2cccc3c2c1CC=C3 (stereo not drawn) [Compound I-13] | 1 to 5 | 30 to 35 | 
10 | [O-][S+](/C=C/CCN=C=S)c1ccc(N2CCOCC2)cc1 (stereo not drawn) [Compound I-09] | 1 to 5 | 25 to 30 | 
11 | [O-][S+](/C=C/CCN=C=S)c1ccc2c(c1)CCCC2 (stereo not drawn) [Compound I-10] | 1 to 5 | 30 to 35 | 
12 | [O-][S+](/C=C/CCN=C=S)c1ccc2ncncc2c1 (stereo not drawn) [Compound I-18] | 1 to 5 | 30 to 35 | 
13 | [O-][S+](/C=C/CCN=C=S)c1nc2ccccc2[nH]1 (stereo not drawn) [Compound I-22] | 1 to 5 | 30 to 35 | 
14 | CC(C)C[S+]([O-])/C=C/CCN=C=S (stereo not drawn) [Compound F-04, reference compound] | 10 to 15 | 60 to 65 | 
15 | COc1cc([S+]([O-])/C=C/CCN=C=S)cc(C(F)(F)F)c1 (stereo not drawn) [Compound I-05] | 0.5 to 1 | 20 to 25 | 
16 | Nc1ccc(O)c(C(=O)O)c1 [Compound 5-ASA, 5-aminosalicylic acid, reference compound] |  |  | Serum IL-6 level, Animal-1 (IL-6): 2.7 ng/mL; Serum IL-6 level, Animal-2 (IL-6): 2.2 ng/mL; Serum IL-6 level, Animal-3 (IL-6): 2.3 ng/mL; Serum TNF-α level, Animal-1 (TNF-α): 1.7 ng/mL; Serum TNF-α level, Animal-2 (TNF-α): 1.8 ng/mL; Serum TNF-α level, Animal-3 (TNF-α): 2.0 ng/mL; Macroscopic pathological score (IBD animal model): 4.0 ± 0.2; colon tissue bleeding and ulceration phenomena (in words) (IBD animal model; 80 mg/kg): small relief extent
17 | NS(=O)(=O)c1cc([S+]([O-])/C=C/CCN=C=S)cc(C(F)(F)F)c1 (stereo not drawn) [Compound I-07] | 0.5 to 1 | 20 to 25 | 
18 | [O-][S+](/C=C/CCN=C=S)c1ccc2cc3ccccc3cc2c1 (stereo not drawn) [Compound I-12] | 1 to 5 | 30 to 35 | 
19 | C[S+]([O-])/C=C/CCN=C=S (stereo not drawn) [SFE, sulforaphene, reference compound] | 10 to 15 |  | 
20 | [O-][S+](/C=C/CCN=C=S)c1nc2cc(C(F)(F)F)ccc2s1 (stereo not drawn) [Compound I-21] | 1 to 5 | 30 to 35 | 
21 | [O-][S+](/C=C/CCN=C=S)c1cccnc1 (stereo not drawn) [Compound I-15] | 1 to 5 | 35 to 40 | 
22 | [O-][S+](/C=C/CCN=C=S)c1ccc(Br)cc1 (stereo not drawn) [Compound I-02] | 1 to 5 | 30 to 35 | Macroscopic pathological score (IBD animal model): 2.0 ± 0.4
23 | [O-][S+](/C=C/CCN=C=S)c1nc2ccc(C(F)(F)F)cc2[nH]1 (stereo not drawn) [Compound I-23] | 1 to 5 | 30 to 35 | 
24 | CC(=O)O[C@@]12CO[C@@H]1C[C@H](O)[C@@]1(C)C(=O)[C@H](O)C3=C(C)[C@@H](OC(=O)[C@H](O)[C@@H](NC(=O)OC(C)(C)C)c4ccccc4)C[C@@](O)([C@@H](OC(=O)c4ccccc4)[C@H]21)C3(C)C [Docetaxel, docetaxel] |  | 81 | response vs control in vivo at 20 mg/kg ([1]; 504 h, 20 mg/kg intraperitoneal injection once a day for 3 weeks, read-out: T/C (%)): 77%; mortality at 20 mg/kg ([1]; 720 h, read-out: Mortality (within 30 days)): 0%
25 | [O-][S+](/C=C/CCN=C=S)c1ccc(-c2ccccc2)cc1 (stereo not drawn) [Compound I-26] | 0.5 to 1 | 20 to 25 | 
